{"source": "patent US12156922B2", "about": "“Copper-containing complex and uses thereof” (Bar-Ilan University, priority 2017, dated 2024)", "key": {"[1]": {"target": "T1, Ctr1 (Homo sapiens, UniProt O15431, DEL121-121)", "T1 construct": "intein (cleaved yes); made in house; host or cells: Escherichia coli BL21 (DE3)", "T1 sequence (O15431 with tags, fused parts or gaps DEL121-121)": "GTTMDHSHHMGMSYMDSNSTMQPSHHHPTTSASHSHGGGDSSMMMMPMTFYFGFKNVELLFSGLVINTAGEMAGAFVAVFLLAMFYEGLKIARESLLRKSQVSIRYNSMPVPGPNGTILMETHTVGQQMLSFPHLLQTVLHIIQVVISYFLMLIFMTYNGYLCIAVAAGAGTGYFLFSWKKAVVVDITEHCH", "assay": "EPR of Cu(II) coordination after exposure of complex to purified Ctr1", "type": "binding", "conditions": "120 K, 0.5 mM", "from_the_text": "Human Ctr1 (hCtr1) was obtained by expression and purification of a protein (SEQ ID NO: 43), using a pYTB12-hCTR1 plasmid, in which the full length hCTR1 sequence was cloned into the pYTB12 plasmid. This construct encodes for a fusion protein composed of hCTR1, intein, and a chitin-binding domain. The plasmid was transformed into the Escherichia coli strain BL21 (DE3).\nIn order to assess the behavior of a Cu(II)-ligand-peptide complex under physiological conditions, the coordination of Cu(II) was investigated by EPR spectroscopy following exposure of a Cu(II)-IDA-Met1 complex (prepared as described in Example 2) to the copper transporter Ctr1 (in a purified state), which plays a central role in the cellular copper cycle. For comparison, the behavior of Cu(II)-IDA (without a peptide) was also investigated under such conditions. EPR spectra were interpreted by comparison to simulated spectra prepared using the EasySpin™ computational package."}, "[2]": {"test_system": "DA3 breast cancer cells", "assay": "Cu(I) levels in cells by bicinchoninic acid (BCA) absorption at 562 nm", "type": "cell-based", "procedure": "The interaction between cells and Cu(II)-ligand-peptide complexes under various conditions was investigated by contacting DA3 breast cancer cells with a Cu(II)-IDA-Cys1 complex (prepared as described in Example 2) or with CuCl2 as a control. The concentration of reduced copper (Cu(I)) was then determined by complexation with bicinchoninic acid (BCA) and evaluating the concentration of BCA-Cu(I) by measuring absorption at a wavelength of 562 nm."}, "[3]": {"assay": "UV-visible spectrophotometry of Tyr-peptide binding to Cu(II), absorption at 276 nm", "procedure": "In order to compare affinity of peptides to Cu(II)-ligand-peptide complexes, UV-visible spectrophotometry was used to assess the degree of incorporation of Cys1-Tyr (SEQ ID NO: 51) and Met1-Tyr (SEQ ID NO: 50) peptides into Cu(II)-containing complexes, at various concentrations of Cu(II), IDA and peptide. The spectrophotometry focused on changes in Tyr residue absorption at about 276 nm. […]\nIn addition, 1 mM of peptide (16.6 μl) with 1 mM CuCl2 (12.5 μl) in ultrapure water (258.4 μl) was titrated with various concentrations (ranging from 0.25 to 1 mM or 0.25 to 1.25 mM) of IDA."}}, "data": [{"molecule": "O=C([O-])CNCC(=O)[O-].[Cu+2]", "note": "[Cu(II)-IDA]", "values": [{"measurement": "coordination of Cu(II) in the presence of Ctr1", "setting": "[1]", "value": "becomes coordinated to the Ctr1"}]}, {"molecule": "[Cl][Cu][Cl]", "note": "[free Cu(II) ions, CuCl2]", "values": [{"measurement": "time for which Cu(I) concentration in cells is maintained", "setting": "[2]; 1.5 mM", "value": "depleted from the cell within several hours"}, {"measurement": "Cu(I) ions in cells, hypoxic vs normoxic conditions", "setting": "[2]; 1.5 mM, 2, 6 or 24 hours after exposure", "value": "more Cu(I) ions are observed in cells under hypoxic conditions than under normoxic conditions"}, {"measurement": "entry of copper into cells in the presence of Ag(I) ions, a Ctr1 inhibitor", "setting": "[2]; 3 mM Ag(I) ions, 1.5 mM copper species", "value": "not blocked"}]}, {"molecule": "KSMAACAM (Cys1 peptide sequence)", "values": [{"measurement": "affinity to Cu(II), comparison of peptides", "setting": "[3]; from Cys1-Tyr and Met1-Tyr titrations", "value": "considerably stronger affinity to Cu(II) than does Met1"}]}, {"molecule": "MYGMKGMSY [Met1-Tyr]", "values": [{"measurement": "IDA-dependent change in absorption at 276 nm", "setting": "[3]; 1 mM peptide, 1 mM CuCl2, titrated with IDA", "value": "larger IDA-dependent change in absorption than did Cys1-Tyr"}]}]}
